Results taken from patent US20230382891A1, “GLUTAMINYL-PEPTIDE CYCLOTRANSFERASE LIKE (QPCTL) PROTEIN INHIBITORS AND USES THEREOF” (Blacksmith Medicines, Inc., priority 2020, published 2023).

Each molecule was assayed against Glutaminyl-peptide cyclotransferase like (QPCTL) protein (Homo sapiens, UniProt Q9NXS2) (assay: Glutaminyl-peptide cyclotransferase like (QPCTL) protein inhibition assay (Gln-AMC substrate, pGAPase coupled)). Conditions: 50 mM MES pH 7.0, 10 μM ZnCl2, 0.2 U/mL pGAPase, Gln-AMC at its Km, 30° C.
Chain of Glutaminyl-peptide cyclotransferase like (QPCTL) protein (Q9NXS2 whole entry, species assumed): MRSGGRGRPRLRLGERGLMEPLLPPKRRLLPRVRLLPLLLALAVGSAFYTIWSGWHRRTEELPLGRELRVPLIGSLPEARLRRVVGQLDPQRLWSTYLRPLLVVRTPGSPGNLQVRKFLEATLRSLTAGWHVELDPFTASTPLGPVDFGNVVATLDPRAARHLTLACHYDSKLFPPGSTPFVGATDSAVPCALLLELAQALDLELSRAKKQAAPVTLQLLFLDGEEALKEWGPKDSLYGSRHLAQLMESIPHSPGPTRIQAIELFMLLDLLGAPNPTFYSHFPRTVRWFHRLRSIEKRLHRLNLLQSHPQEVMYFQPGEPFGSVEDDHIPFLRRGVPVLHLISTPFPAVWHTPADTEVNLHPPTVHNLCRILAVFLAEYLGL
Format: biochemical
Procedure: Example B-1: Glutaminyl-Peptide Cyclotransferase Like (OPCTL) Protein Inhibition Assay
Glutaminyl-peptide cyclotransferase like (QPCTL) protein activity was determined using L-glutamine-7-amido-4-methylcoumarin (Gln-AMC, Santa Cruz Biotechnology) as a substrate. A second enzyme, pyroglutamyl aminopeptidase (pGAPase, Qiagen), was included in the assay to release the AMC fluorophore following cyclization; appropriate controls were run to ensure that inhibitors were not inhibiting the auxiliary enzyme. Inhibitors were added at various concentrations to buffer (final concentrations: 50 mM MES pH 7.0, 10 μM ZnCl2, 0.2 U/mL pGAPase, Gln-AMC at its Km) and the reaction initiated by the addition of QPCTL. Reactions became linear after a 10-minute equilibration period at 30° C. (to accumulate pGlu-AMC intermediate), and were monitored for an additional 10 minutes.
Table A provides QPCTL inhibitory activity of illustrative compounds, where A means IC50 is <1 μM; B means IC50 is between 1 to 10 μM; C means IC50 is between 10 to 50 PM; D means IC50 is >50 PM.

Row | Molecule | IC50 [µM] | QPCTL IC50
1 | 1-(1-(6′-chloro-[3,3′-bipyridin]-2-yl)piperidin-4-yl)-1H-1,2,3-triazol-4-amine [Compound 3] | < 1 | –
2 | Nc1nnc(C2CCN(c3ncccc3-c3ccc(F)nc3)CC2)[nH]1 [Compound 1, 5-(1-(6′-fluoro-[3,3′-bipyridin]-2-yl)piperidin-4-yl)-4H-1,2,4-triazol-3-amine] | < 1 | –
3 | Nc1nnc(C2CCN(c3ncccc3-c3ccc(F)nc3)CC2)o1 [Compound 2, 5-(1-(6′-fluoro-[3,3′-bipyridin]-2-yl)piperidin-4-yl)-1,3,4-oxadiazol-2-amine] | < 1 | –
4 | Cc1ccc(-c2ccc(F)nc2)c(N2CCC(c3nnc(N)n3C)CC2)n1 [Compound 4, 5-(1-(6′-fluoro-6-methyl-[3,3′-bipyridin]-2-yl)piperidin-4-yl)-4-methyl-4H-1,2,4-triazol-3-amine] | < 1 | –
5 | Cn1c(N)nnc1C1CCN(c2nc(F)ccc2-c2ccc(F)nc2)CC1 [Compound 5, 5-(1-(6,6′-difluoro-[3,3′-bipyridin]-2-yl)piperidin-4-yl)-4-methyl-4H-1,2,4-triazol-3-amine] | < 1 | –
6 | Cn1c(N)nnc1C1CCN(c2ncccc2-c2ccc(F)nc2)CC1 [Compound 6, 5-(1-(6′-fluoro-[3,3′-bipyridin]-2-yl)piperidin-4-yl)-4-methyl-4H-1,2,4-triazol-3-amine] | < 1 | –
7 | CNc1nnc(C2CCN(c3ncccc3-c3ccc(F)nc3)CC2)[nH]1 [Compound 7, 5-(1-(6′-fluoro-[3,3′-bipyridin]-2-yl)piperidin-4-yl)-N-methyl-4H-1,2,4-triazol-3-amine] | < 1 | –
8 | Cc1c(N)nnn1C1CCN(c2ncccc2-c2ccc(F)nc2)CC1 [Compound 10, 1-(1-(6′-fluoro-[3,3′-bipyridin]-2-yl)piperidin-4-yl)-5-methyl-1H-1,2,3-triazol-4-amine] | < 1 | –
9 | Nc1nnc2c(C3=CCN(c4ncccc4-c4ccc(F)nc4)CC3)cccn12 [Compound 15, 8-(6″-fluoro-3,6-dihydro-2H-[1,2′:3′,3″-terpyridin]-4-yl)-[1,2,4]triazolo[4,3-a]pyridin-3-amine] | < 1 | –
10 | C1=C(c2cccn3cnnc23)CCN(c2ncccc2-c2cncnc2)C1 [Compound 16, 8-(3′-(pyrimidin-5-yl)-3,6-dihydro-2H-[1,2′-bipyridin]-4-yl)-[1,2,4]triazolo[4,3-a]pyridine] | – | C (C means IC50 is between 10 to 50 PM)
11 | Nc1nnc2c(C3CCN(c4ncccc4-c4ccc(F)nc4)CC3)cccn12 [Compound 17, 8-(1-(6′-fluoro-[3,3′-bipyridin]-2-yl)piperidin-4-yl)-[1,2,4]triazolo[4,3-a]pyridin-3-amine] | < 1 | –
12 | Fc1ccc(-c2cccnc2N2CC=C(c3cccn4cncc34)CC2)cn1 [Compound 20, 8-(6″-fluoro-3,6-dihydro-2H-[1,2′:3′,3″-terpyridin]-4-yl)imidazo[1,5-a]pyridine] | 1 to 10 | –
13 | Fc1ccc(CN2CC=C(c3cccn4cnnc34)CC2)cn1 [Compound 21, 8-(1-((6-fluoropyridin-3-yl)methyl)-1,2,3,6-tetrahydropyridin-4-yl)-[1,2,4]triazolo[4,3-a]pyridine] | – | D (D means IC50 is >50 PM)
14 | C1=C(c2cccn3cncc23)CCN(c2ccccn2)C1 [Compound 24, 8-(3,6-dihydro-2H-[1,2′-bipyridin]-4-yl)imidazo[1,5-a]pyridine] | 1 to 10 | –
15 | OCCn1cc(C2CN(c3ccccn3)CC=C2c2cccn3cnnc23)cn1 (stereo not shown) [Compound 26, 2-(4-(4-([1,2,4]triazolo[4,3-a]pyridin-8-yl)-3,6-dihydro-2H-[1,2′-bipyridin]-3-yl)-1H-pyrazol-1-yl)ethan-1-ol] | 1 to 10 | –
16 | c1ccc(N2CCC(C3CCCn4cnnc43)CC2)nc1 (stereo not shown) [Compound 27, 8-(1-(pyridin-2-yl)piperidin-4-yl)-5,6,7,8-tetrahydro-[1,2,4]triazolo[4,3-a]pyridine] | – | C (C means IC50 is between 10 to 50 PM)

Other lines, results leading:

Row | IC50 [µM] | QPCTL IC50 | Molecule
17 | – | C (C means IC50 is between 10 to 50 PM) | Fc1ccc(-c2cccnc2N2CC=C(c3cccn4cnnc34)CC2)cc1F [Compound 11, 8-(3′-(3,4-difluorophenyl)-3,6-dihydro-2H-[1,2′-bipyridin]-4-yl)-[1,2,4]triazolo[4,3-a]pyridine]
18 | 1 to 10 | – | N#Cc1ccc(-c2cccnc2N2CC=C(c3cccn4cnnc34)CC2)cn1 [Compound 12, 4-([1,2,4]triazolo[4,3-a]pyridin-8-yl)-3,6-dihydro-2H-[1,2′:3′,3″-terpyridine]-6″-carbonitrile]
19 | 1 to 10 | – | Nc1ccc(-c2cccnc2N2CC=C(c3cccn4cnnc34)CC2)cn1 [Compound 13, 4-([1,2,4]triazolo[4,3-a]pyridin-8-yl)-3,6-dihydro-2H-[1,2′:3′,3″-terpyridin]-6″-amine]
20 | 1 to 10 | – | COc1ccc(-c2cccnc2N2CC=C(c3cccn4cnnc34)CC2)cn1 [Compound 14, 8-(6″-methoxy-3,6-dihydro-2H-[1,2′:3′,3″-terpyridin]-4-yl)-[1,2,4]triazolo[4,3-a]pyridine]
21 | 1 to 10 | – | Fc1ccc(-c2cccnc2N2CC=C(c3cccn4cnnc34)CC2)cn1 [Compound 18, 8-(6″-fluoro-3,6-dihydro-2H-[1,2′:3′,3″-terpyridin]-4-yl)-[1,2,4]triazolo[4,3-a]pyridine]
22 | 1 to 10 | – | COCCOc1ccc(-c2cccnc2N2CC=C(c3cccn4cnnc34)CC2)cn1 [Compound 19, 8-(6″-(2-methoxyethoxy)-3,6-dihydro-2H-[1,2′:3′,3″-terpyridin]-4-yl)-[1,2,4]triazolo[4,3-a]pyridine]
23 | – | C (C means IC50 is between 10 to 50 PM) | C1=C(c2cccn3cnnc23)CCN(c2ccccn2)C1 [Compound 22, 8-(3,6-dihydro-2H-[1,2′-bipyridin]-4-yl)-[1,2,4]triazolo[4,3-a]pyridine]
24 | – | C (C means IC50 is between 10 to 50 PM) | COc1ccc(C2=CCCN(CC#Cc3cccn4cnnc34)C2)cc1OC [Compound 23, 8-(3-(5-(3,4-dimethoxyphenyl)-3,6-dihydropyridin-1(2H)-yl)prop-1-yn-1-yl)-[1,2,4]triazolo[4,3-a]pyridine]
25 | – | D (D means IC50 is >50 PM) | COc1ccc(CN2CCC=C(c3cccn4cnnc34)C2)cc1OC [Compound 25, 8-(1-(3,4-dimethoxybenzyl)-1,2,5,6-tetrahydropyridin-3-yl)-[1,2,4]triazolo[4,3-a]pyridine]
